Results from US5407942A, “Biphenylmethyl-substituted pyridones” (Bayer Aktiengesellschaft, priority 1992, dated 1995).
Converted amounts (≈) assume the structure as drawn.

How the values were obtained:
[1] = target: T1, angiotensin II receptor (Bos taurus, UniProt P25104); experiment: Interaction with the angiotensin II receptor in membrane fractions of the adrenal gland cortex (bovine), 3H-angiotensin II binding; details: 3H-angiotensin II 3-5 nM, 60 min at room temperature, read-out: Ki, specific binding of 3H-angiotensin II
T1 construct: partially purified membrane fractions of bovine AGC using radioactive angiotensin II; from tissue; host or cells: bovine adrenal gland cortex, partially purified membrane fractions
T1 sequence (P25104 1-359): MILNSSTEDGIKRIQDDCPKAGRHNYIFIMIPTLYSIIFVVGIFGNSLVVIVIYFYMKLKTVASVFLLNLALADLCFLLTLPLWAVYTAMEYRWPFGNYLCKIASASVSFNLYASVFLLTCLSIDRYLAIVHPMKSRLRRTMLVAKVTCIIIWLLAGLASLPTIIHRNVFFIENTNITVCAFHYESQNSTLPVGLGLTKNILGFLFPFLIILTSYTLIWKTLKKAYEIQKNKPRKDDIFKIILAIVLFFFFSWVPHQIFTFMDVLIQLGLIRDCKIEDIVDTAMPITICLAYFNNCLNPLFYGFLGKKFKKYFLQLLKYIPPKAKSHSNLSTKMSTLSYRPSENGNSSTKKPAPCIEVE
From the text: Interaction of the compounds according to the invention with the angiotensin II receptor in membrane fractions of the adrenal gland cortex (bovine)
Bovine adrenal gland cortices (AGC), which have been freshly removed and carefully freed from gland medulla, are comminuted in sucrose solution (0.32M) with the aid of an Ultra-Turrax (Janke & Kunkel, Staufen i.B.) to give a coarse membrane homogenate and partially purified in two centrifugation steps to give membrane fractions. The receptor binding investigations are carried out on partially purified membrane fractions of bovine AGC using radioactive angiotensin II in an assay volume of 0.25 ml, which specifically contains the partially purified membranes (50-80 μg), ^3 H-angiotensin II (3-5 nM), test buffer solution (50 mM Tris, pH 7.2, 5 mM MgCl2) and the substances to be investigated. After an incubation time of 60 min at room temperature, the unbound radioactivity of the samples is separated by means of moistened glass fibre filters (Whatman GF/C) and the bound radioactivity is measured […] in a scintillation cocktail after washing the protein with ice-cold buffer solution (50 mM Tris/HCl, pH 7.4, 5% PEG 6000). The analysis of the raw data was carried out using computer programs to give Ki or IC50 values (Ki : IC50 values corrected for the radioactivity used; IC50 values: concentration at which the substance to be investigated causes a 50% inhibition of the specific binding of the radioligand).

[2] = system: isolated rabbit aorta rings; contraction induced by angiotensin II (AII); experiment: Inhibition of vascular contraction in isolated rabbit aorta rings induced by angiotensin II (AII); format: cell-based; details: Oryctolagus cuniculus; isolated rabbit aorta rings in vitro, 37° C.; based on 3rd = submaximal agonist concentration; read-out: IC50 against contractions induced by AII
Method: Investigation of the inhibition of the contraction induced by agonists
Rabbits of either sex are stunned by a blow to the back of the head and bled out, or in some cases anaesthetised with Nembutal (about 60-80 mg/kg i.v.) and sacrificed by opening the thorax. The thorax aorta is removed, freed from adhering connective tissue, divided into ring segments 1.5 mm wide and individually transferred under an initial loading of about 3.5 g to 10 ml organ baths containing Krebs-Henseleit nutrient solution, which is temperature-controlled at 37° C. and aerated with 95% O2 /5% CO2, of the following composition: 119 mmol/l of NaCl; 2.5 mmol/l of CaCl2 ×2H2 O; 1.2 mmol/l of KH2 PO4; 10 mmol/l of glucose; 4.8 mmol/l of KCl; 1.4 mmol/l of MgSO4 ×7 H2 O and 25 mmol/l of NaHCO3.
The contractions are detected isometrically by Statham UC2 cells by means of bridge amplifiers (ifd Mulheim or DSM Aalen) and digitalised and assessed by means of A/D converters (System 570, Keithley Munich). Agonist dose response curves (DRC) are plotted hourly. With each DRC, 3 or 4 individual concentrations are applied to the baths at a 4 min interval. After the end of the DRC and subsequent washing-out cycles (16 times in each case about 5 sec/min with the abovementioned nutrient solution), a 28-minute rest or incubation phase follows, during which the contractions as a rule reach the starting value again.
The height of the 3rd DRC, in a normal case, is used as a reference variable for the assessment of the test substance to be investigated in further runs, which is applied to the baths in the following DRCs in increasing doses in each case at the start of the incubation period. Each aorta ring is in this case stimulated for the whole day, always with the same agonist.
Agonists and their standard concentrations (application
For the calculation of the IC50 (concentration at which the substance to be investigated causes a 50% inhibition), the effect is in each case based on the 3rd=submaximal agonist concentration.

[3] = system: smooth muscle cells; experiment: Inhibition of the proliferation of smooth muscle cells (3H-thymidine incorporation); format: cell-based, rats or pigs; details: 10^-6 M, stimulated with AII, serum or other factors
Method: Investigation of the inhibition of the proliferation of smooth muscle cells by the compounds according to the invention
To determine the antiproliferative action of the compounds, smooth muscle cells are used which are obtained from aortas of rats or pigs by the media explant technique [R. Ross, J. Cell. Biol. 50, 172, 1971]. The cells are inoculated into suitable culture dishes, as a rule 24-hole plates, and cultured at 37° C. for 2-3 days in medium with addition of serum, 2 mmol L-glutamine and 15 mmol HEPES, pH 7.4 in 5% CO2. The cells are then synchronised by withdrawal of serum for 2-3 days and then stimulated into growth with AII, serum or other factors. Test compounds are simultaneously added. […]

Row | SMILES | Ki [1] [nM] | IC50 [2] [µg/mL] | inhibition at 1 µM [3] [%]
1 | CCCCc1cc2ccccc2c(=O)n1Cc1ccc(-c2ccccc2-c2nnn[nH]2)cc1 [Example 2, 3-Butyl-2-{[2'-(tetrazol-5-yl)-biphenyl-4-yl]methyl}-isoquinolin-1(2H)-one] | 42 | 0.23 (≈ 0.528 µM) | 
2 | CCc1cc2ccccc2c(=O)n1Cc1ccc(-c2ccccc2-c2nnn[nH]2)cc1 [Example 4, 3-Ethyl-2-{[2'-(tetrazol-5-yl)-biphenyl-4-yl]methyl}-isoquinolin-1(2H)-one] | 750 | 0.84 (≈ 2.06 µM) | 
3 | O=c1c2ccccc2cc(-c2ccccc2)n1Cc1ccc(-c2ccccc2-c2nnn[nH]2)cc1 [Example 6, 3-Phenyl-2-{[2'-(tetrazol-5-yl)-biphenyl-4-yl]methyl}-isoquinolin-1(2H)-one] | 2000 | > 1 | 70
